Consider 20 compounds from patent US12162863B2, “Modulators of stimulator of interferon genes (STING)” (RYVU THERAPEUTICS S.A., priority 2018, dated 2024).

Test [1] relates to interferon regulatory factor (IRF) pathway in THP-1 dual cells. The test can be described thus: THP-1 Dual Reporter Assay, IRF pathway (luciferase reporter). The format is cell-based. The conditions noted are these: Homo sapiens, THP1-Dual, 18 h of stimulation, luminescence. How it is done:
(§1) THP-1 Dual Reporter Assay
(§2) Compounds of the present invention were tested for their activity using THP-1 dual cells (Invivogen, cat no. thpd-nfis) allowing for simultaneous study of NF-κB pathway and the interferon regulatory factor (IRF) pathway. THP-1 dual cells contain luciferase reporter gene under the control of an ISG54 (interferon-stimulated gene) minimal promoter in conjunction with five interferon-stimulated response elements and a secreted embryonic alkaline phosphatase reporter gene under the control an IFN (interferon)-β minimal promoter fused to five copies of the NF-κB consensus transcriptional response element with three copies of the c-Rel binding site. Following 18 h of stimulation with STING agonist, medium was collected and transferred onto fresh cell culture plate. To verify activity of the IRF pathway, luminescence activity was measured with standard laboratory plate reader immediately after addition 10 μl of the medium to 50 μl of luminescence reagent (Invivogen, cat. No. rep-qlc2). To verify activity of NF-κB pathway, 20 μl of the medium was mixed with 80 μl of a detection medium (Invivogen, cat. No. rep-qb2) and incubated for 2 hours at 37° C. in a humidified atmosphere containing 5% CO2. Next, absorbance at 630 nm was recorded using standard laboratory plate reader.

Test [2] relates to NF-κB pathway in THP-1 dual cells. The test is described as follows: THP-1 Dual Reporter Assay, NF-κB pathway (SEAP reporter). The format is cell-based. Particulars: Homo sapiens, THP1-Dual, 18 h of stimulation, absorbance at 630 nm, read-out: THP1 Dual EC50 (μM) NFkB. How it is done:
as §1, §2

The target in the next test is human STING (Homo sapiens, UniProt Q86WV6). The test can be described thus: Fluorescence Thermal Shift assay. The format is binding. The conditions noted are these: 50 μM compound; STING 0.1 mg/ml; 20 minutes preincubation; read-out: [hSTING] FTS, ΔTm [° C.] for 50 μM. Here is the method: Fluorescence Thermal Shift Assay Compounds of the present invention were tested for binding to human STING in Fluorescence Thermal Shift assay. STING was preincubated with the compounds for 20 minutes in 50 mM Hepes, 150 mM NaCl, pH 7.5 in 16 μl volume, following by adding 4 μl of SyproOrange dye dilution (ThermoFisher, cat no. S-6651). Final STING concentration was 0.1 mg/ml. Thermal unfolding was performed in Real-Time PCR QuantStudio 6 Flex System (Applied Biosystems), from 25 to 99° C., with continuous ramp mode and ramp rate 0.033° C./s. The data were analyzed using Protein Thermal Shift Software (ThermoFisher). […] For example, ΔTm [° C.] of FTS assay for following examples are: […]
Sequence of human STING (Q86WV6 whole entry H232R): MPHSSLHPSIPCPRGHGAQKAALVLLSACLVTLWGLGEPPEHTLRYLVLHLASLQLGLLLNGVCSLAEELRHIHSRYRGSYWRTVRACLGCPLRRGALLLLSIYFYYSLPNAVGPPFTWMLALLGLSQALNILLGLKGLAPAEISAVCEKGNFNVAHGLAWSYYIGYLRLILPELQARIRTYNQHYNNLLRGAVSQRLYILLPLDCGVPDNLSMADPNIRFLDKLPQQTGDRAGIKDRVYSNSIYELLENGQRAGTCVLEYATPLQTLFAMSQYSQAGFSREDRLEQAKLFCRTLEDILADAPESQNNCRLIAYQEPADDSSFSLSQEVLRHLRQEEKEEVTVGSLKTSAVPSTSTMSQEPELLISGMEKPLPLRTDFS

Structures are written as SMILES.

As for `O=c1c(CN(CCCn2ccnc2)Cc2ccncc2)coc2ccccc12` [Example 33, 3-({[3-(1H-imidazol-1-yl)propyl](pyridin-4-ylmethyl)amino}methyl)-4H-chromen-4-one], the EC50 in test [1] is 10 to 20 µM; in test [2], at least 20 µM. The ΔTm at 50 µM at human STING is below 2.5 °C.

With `COc1cc(CN(CCCn2ccnc2)Cc2coc3cc(N4CCN(C)CC4)ccc3c2=O)ccn1` [Example 34, 3-({[3-(1H-imidazol-1-yl)propyl][(2-methoxypyridin-4-yl)methyl]amino}methyl)-7-(4-methylpiperazin-1-yl)-4H-chromen-4-one], the EC50 in test [1] is at least 20 µM; in test [2], 10 to 20 µM. In addition, the ΔTm at 50 µM at human STING was below 2.5 °C.

For the compound `Cc1oc2ccccc2c(=O)c1CN(CCCn1ccnc1)Cc1ccncc1` [Example 36, 3-({[3-(1H-imidazol-1-yl)propyl][(pyridin-4-yl)methyl]amino}methyl)-2-methyl-4H-chromen-4-one], the EC50 in test [1] is at most 10 µM; in test [2] it was 10 to 20 µM. Besides, at human STING, the ΔTm at 50 µM is above 2.5 °C.

On to `O=c1c(CN(CCCn2ccnc2)Cc2ccncc2)coc2cc(Br)c(F)cc12` [Example 37, 7-bromo-6-fluoro-3-({[3-(1H-imidazol-1-yl)propyl][(pyridin-4-yl)methyl]amino}methyl)-4H-chromen-4-one], for which the EC50 in test [1] and in test [2] was at most 10 µM throughout. Besides, the ΔTm at 50 µM on human STING was above 2.5 °C.

Take `COc1ccc(-c2ccc3c(=O)c(CN(CCCn4ccnc4)Cc4ccncc4)coc3c2)cc1OC` [Example 38, 7-(3,4-dimethoxyphenyl)-3-({[3-(1H-imidazol-1-yl)propyl][(pyridin-4-yl)methyl]amino}methyl)-4H-chromen-4-one]: the EC50 in test [1] and in test [2] was at least 20 µM in each case. The ΔTm at 50 µM at human STING was below 2.5 °C.

Turning to `COc1ccccc1-c1ccc2c(=O)c(CN(CCCn3ccnc3)Cc3ccncc3)coc2c1` [Example 39, 3-({[3-(1H-imidazol-1-yl)propyl][(pyridin-4-yl)methyl]amino}methyl)-7-(2-methoxyphenyl)-4H-chromen-4-one], the EC50 was at most 10 µM in test [1] and 10 to 20 µM in test [2]. Further, the ΔTm at 50 µM at human STING is above 2.5 °C.

As for `COc1cccc(-c2ccc3c(=O)c(CN(CCCn4ccnc4)Cc4ccncc4)coc3c2)c1` [Example 40, 3-({[3-(1H-imidazol-1-yl)propyl][(pyridin-4-yl)methyl]amino}methyl)-7-(3-methoxyphenyl)-4H-chromen-4-one], the half-maximal effective concentration (EC50) in test [1] and in test [2] was at most 10 µM throughout. Moreover, at human STING, the ΔTm at 50 µM is above 2.5 °C.

On to `Cc1oc2ccccc2c(=O)c1CN(CCCc1cccnc1)Cc1ccncc1` [Example 41, 2-methyl-3-({[3-(pyridin-3-yl)propyl][(pyridin-4-yl)methyl]amino}methyl)-4H-chromen-4-one], for which the concentration for a half-maximal effect (EC50) in test [1] and in test [2] was 10 to 20 µM each time. Besides, the ΔTm at 50 µM on human STING was above 2.5 °C.

In the case of `COc1ccc(-c2cc3occ(CN(CCCn4ccnc4)Cc4ccncc4)c(=O)c3cc2F)cc1` [Example 42, 6-fluoro-3-({[3-(1H-imidazol-1-yl)propyl][(pyridin-4-yl)methyl]amino}methyl)-7-(4-methoxyphenyl)-4H-chromen-4-one], the EC50 in test [1] and in test [2] was at most 10 µM each time. Further, the ΔTm at 50 µM on human STING was above 2.5 °C.

Take `CCn1cc(CN(CCCn2ccnc2)Cc2ccncc2)c(=O)c2ccccc21` [Example 43, 1-ethyl-3-({[3-(1H-imidazol-1-yl)propyl](pyridin-4-ylmethyl)amino}methyl)-1,4-dihydroquinolin-4-one]: the EC50 in test [1] and in test [2] was at least 20 µM in each case. Also, the ΔTm at 50 µM at human STING is below 2.5 °C.

On to `COc1cc(CN(CCCn2ccnc2)Cc2cn(C)c3ccccc3c2=O)ccn1` [Example 44, 3-({[3-(1H-imidazol-1-yl)propyl][(2-methoxypyridin-4-yl)methyl]amino}methyl)-1-methyl-1,4-dihydroquinolin-4-one], for which the results for the concentration giving a half-maximal response (EC50) in test [1] and in test [2] were 10 to 20 µM and at least 20 µM, respectively. For the same compound, the ΔTm at 50 µM at human STING is below 2.5 °C.

Take `O=c1c(CN(CCCn2ccnc2)Cc2ccncc2)coc2c(F)cc(F)cc12` [Example 45, 6,8-difluoro-3-({[3-(1H-imidazol-1-yl)propyl][(pyridin-4-yl)methyl]amino}methyl)-4H chromen-4-one]: the half-maximal effective concentration (EC50) is 10 to 20 µM in test [1] and at least 20 µM in test [2]. Further, the ΔTm at 50 µM on human STING is below 2.5 °C.

For `COc1cc(CN(CCCn2ccnc2)Cc2c(C)oc3ccccc3c2=O)ccn1` [Example 46, 3-({[3-(1H-imidazol-1-yl)propyl][(2-methoxypyridin-4-yl)methyl]amino}methyl)-2-methyl-4H-chromen-4-one], the EC50 in test [1] was at most 10 µM; in test [2] it was at least 20 µM. Also, the ΔTm at 50 µM at human STING is below 2.5 °C.

Consider `O=c1c(CN(CCCn2ccnc2)Cc2ccncc2)coc2c1cc(F)c1ccccc12` [Example 47, 6-fluoro-3-({[3-(1H-imidazol-1-yl)propyl][(pyridin-4-yl)methyl]amino}methyl)-4H benzo[h]chromen-4-one], for which the EC50 in test [1] and in test [2] was at most 10 µM throughout. In addition, the ΔTm at 50 µM on human STING was above 2.5 °C.

`Cc1oc2cc(Br)ccc2c(=O)c1CN(CCCn1ccnc1)Cc1ccncc1` [Example 48, 7-bromo-3-({[3-(1H-imidazol-1-yl)propyl][(pyridin-4-yl)methyl]amino}methyl)-2-methyl-4H-chromen-4-one]: the EC50 in test [1] and in test [2] was at most 10 µM throughout. On human STING, the ΔTm at 50 µM is above 2.5 °C.

With `CN1CCN(c2cc3occ(CN(CCCn4ccnc4)Cc4ccncc4)c(=O)c3cc2F)CC1` [Example 49, 6-fluoro-3-({[3-(1H-imidazol-1-yl)propyl][(pyridin-4-yl)methyl]amino}methyl)-7-(4-methylpiperazin-1-yl)-4H-chromen-4-one], the EC50 in test [1] and in test [2] was at most 10 µM in each case. On human STING, the ΔTm at 50 µM is above 2.5 °C.

Take `O=c1c(CN(CCCn2cnc3ccccc32)Cc2ccncc2)coc2c1ccc1ccccc12` [Example 50, 3-({[3-(1H-1,3-benzodiazol-1-yl)propyl][(pyridin-4-yl)methyl]amino}methyl)-4H-benzo[h]chromen-4-one]: the EC50 in test [1] and in test [2] was at most 10 µM each time. Further, on human STING, the ΔTm at 50 µM was above 2.5 °C.

`COc1cc(CN(CCCn2ccnc2)Cc2coc3c(C)c(C)ccc3c2=O)ccn1` [Example 51, 3-({[3-(1H-imidazol-1-yl)propyl][(2-methoxypyridin-4-yl)methyl]amino}methyl)-7,8-dimethyl-4H-chromen-4-one]: the EC50 in test [1] and in test [2] was at most 10 µM throughout. The ΔTm at 50 µM on human STING is above 2.5 °C.

For `COc1ccc2ccc3c(=O)c(CN(CCCc4cccnc4)Cc4ccncc4)coc3c2c1` [Example 52, 9-methoxy-3-({[3-(pyridin-3-yl)propyl][(pyridin-4-yl)methyl]amino}methyl)-4H-benzo[h]chromen-4-one], the EC50 in test [1] and in test [2] was at most 10 µM throughout. Moreover, the ΔTm at 50 µM on human STING is above 2.5 °C.

As for `COc1cc(CN(CCCn2cnc3ccccc32)Cc2coc3c(ccc4ccccc43)c2=O)ccn1` [Example 53, 3-({[3-(1H-1,3-benzodiazol-1-yl)propyl][(2-methoxypyridin-4-yl)methyl]amino}methyl)-4H-benzo[h]chromen-4-one], the EC50 in test [1] and in test [2] was at most 10 µM throughout. In addition, the ΔTm at 50 µM on human STING was above 2.5 °C.
